Data published in the supplement of paper PMC10307832.

Experiments:
Test in all cases: relative viability (nuclei count vs DMSO), 5 days (fraction); higher = more cells survive
Tosedostat + Alpelisib = compound: CC(C)C[C@@H](C(=O)N[C@H](C(=O)OC1CCCC1)c1ccccc1)[C@H](O)C(=O)NO [Tosedostat] + Cc1nc(NC(=O)N2CCC[C@H]2C(N)=O)sc1-c1ccnc(C(C)(C)C(F)(F)F)c1 [Alpelisib] (partner 2 µM)
Outline: (§1)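 Lung cancer cell lines were seeded in 1536-well plates and dosed by pin tool the next day, with either a single drug or a fixed anchor-drug dose combined with five library-drug doses (not always all listed) spaced in √10 steps. Five days later, one step fixed the cells and stained their nuclei (final 0.05% Triton X-100, 1% formaldehyde, 1 ug/ml Hoechst), and nuclei were counted on 4× images. Relative viability is the nuclei count in treated wells divided by the count in vehicle wells, and each value is the median of duplicate plates.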

Tosedostat + Olaparib = compound: CC(C)C[C@@H](C(=O)N[C@H](C(=O)OC1CCCC1)c1ccccc1)[C@H](O)C(=O)NO [Tosedostat] + O=C(c1cc(Cc2n[nH]c(=O)c3ccccc23)ccc1F)N1CCN(C(=O)C2CC2)CC1 [Olaparib] (partner 8 µM)
Outline: as §1

[1] = compound: CC1=NN=C(O1)C2=NN=C(C=C2)N3CCC(CC3)OC4=C(C=CC(=C4)F)Cl + C[C@]1(O)C[C@@H](c2nc(-c3ccc4ccc(-c5ccccc5)nc4c3)c3c(N)nccn32)C1 [Linsitinib] (partner 1 µM)
Outline: as §1

[2] = compound: CC1=NN=C(O1)C2=NN=C(C=C2)N3CCC(CC3)OC4=C(C=CC(=C4)F)Cl + CC(C)C[C@H](NC(=O)[C@H](Cc1ccccc1)NC(=O)c1cnccn1)B(O)O [Bortezomib] (partner 0.002 µM)
Outline: as §1

Row | Cell Line | relative viability (Tosedostat + Alpelisib; first compound 0.02 µM) | relative viability (Tosedostat + Alpelisib; first compound 0.06325 µM) | relative viability (Tosedostat + Alpelisib; first compound 0.2 µM) | relative viability (Tosedostat + Alpelisib; first compound 0.6325 µM) | relative viability (Tosedostat + Alpelisib; first compound 2 µM) | relative viability (Tosedostat + Olaparib; first compound 0.02 µM) | relative viability (Tosedostat + Olaparib; first compound 0.06325 µM) | relative viability (Tosedostat + Olaparib; first compound 0.2 µM) | relative viability (Tosedostat + Olaparib; first compound 0.6325 µM) | relative viability (Tosedostat + Olaparib; first compound 2 µM) | relative viability ([1]; first compound 0.253 µM) | relative viability ([1]; first compound 0.8 µM) | relative viability ([1]; first compound 2.53 µM) | relative viability ([1]; first compound 8 µM) | relative viability ([2]; first compound 0.253 µM) | relative viability ([2]; first compound 0.8 µM) | relative viability ([2]; first compound 2.53 µM) | relative viability ([2]; first compound 8 µM)
1 | COR-L 105 | 0.904 | 0.849 | 1.17 | 0.901 | 0.753 | 0.771 | 0.636 | 0.695 | 0.507 | 0.591 | 0.764 | 0.935 | 1.1 | 1.21 | 0.851 | 0.78 | 0.983 | 1.18
2 | NCI-H2085 | 0.904 | 1.02 | 1.06 | 0.936 | 0.887 | – | 0.86 | 0.784 | 0.784 | 0.782 | 0.743 | 0.793 | 0.792 | 0.65 | 0.745 | 0.813 | 1.03 | 0.761
3 | Calu-6 | 1.18 | 0.883 | 0.91 | 0.689 | 0.597 | 0.631 | 0.494 | 0.5 | 0.439 | 0.326 | 0.635 | 0.612 | 0.691 | 0.656 | 0.764 | 0.807 | 0.832 | 0.804
4 | NCI-H2087 | 1.21 | 1.08 | 1.21 | 0.876 | 0.91 | 0.698 | 0.562 | 0.558 | 0.339 | 0.36 | 0.646 | 0.659 | 0.621 | 0.53 | 0.45 | 0.437 | 0.489 | 0.512
5 | NCI-H322M | 0.726 | 0.902 | 0.537 | 0.755 | 0.53 | 0.746 | 0.713 | 0.67 | 0.532 | 0.635 | 0.853 | 0.836 | 0.896 | 0.786 | 1.05 | 1.05 | 1.21 | 1.11
6 | HCC-366 | 0.331 | 0.357 | 0.376 | 0.382 | 0.342 | 0.361 | 0.334 | 0.385 | 0.32 | 0.33 | 0.225 | 0.291 | 0.386 | 0.247 | 0.394 | 0.438 | 0.436 | 0.395
7 | EMC-BAC-2 | 0.722 | 0.725 | 0.73 | 0.737 | 0.682 | 0.517 | 0.41 | 0.459 | 0.428 | 0.378 | 0.742 | 0.755 | 0.77 | 0.637 | 1.02 | 0.964 | 1.02 | 0.95
8 | NCI-H460 | 0.535 | 0.472 | 0.619 | 0.689 | 0.796 | 0.424 | 0.438 | 0.392 | 0.326 | 0.388 | 0.331 | 0.3 | 0.398 | 0.342 | 0.382 | 0.358 | 0.342 | 0.315
9 | EPLC-272H | 0.777 | 0.999 | 0.719 | 0.747 | 0.505 | 0.879 | 0.711 | 0.557 | 0.471 | 0.293 | 1.09 | – | 1.18 | 1.05 | 0.667 | – | 1.05 | 0.996
